Measurements reported in patent US20110144345A1, “SULFOXYIMINO-SUBSTITUTED BENZOYL DERIVATIVE AND HERBICIDE” (NIPPON SODA CO., LTD., priority 2008, published 2011).

Columns and labels:
Format in all cases: in vivo
Set-up in all cases: scale not given here
[1] = system: rice plants; experiment: Paddy pot test, harmful effects on transplanted rice plants; details: Screening, 63 g/ha, applied at Echinochloa crus-galli 1.5-leaf stage, examined after 3 weeks
Description: (§1) Plastic pots having an area of 100 cm^2 and a depth of 10 cm were filled with paddy soil which is puddled by adding water, and seeds of Echinochloa crus-galli and Scirpus juncoides were planted in the pots. After seeding, rice plants at the 2.5-leaf stage were transplanted and the pots were filled with water. The rice plants were grown in a greenhouse. […] The herbicidal effects and harmful effects on the rice plants were examined after 3 weeks. Herbicidal effects were examined according to the examination criteria described below and were represented by the herbicidal index. [table] […] [formula]

[2] = system: Echinochloa crus-galli; experiment: Paddy pot test, herbicidal effect on Echinochloa crus-galli; details: Screening, 63 g/ha, applied at 1.5-leaf stage, examined after 3 weeks
Description: as §1

[3] = system: Scirpus juncoides; experiment: Paddy pot test, herbicidal effect on Scirpus juncoides; details: Screening, 63 g/ha, examined after 3 weeks
Description: as §1

SMILES | Rice (harmful effects on the rice plants, index) [1] | Echinochloa crus-galli (herbicidal index) [2] | Scripus juncoides (herbicidal index) [3]
COC(=O)c1ccc(C(=O)c2cn(C(=O)SC)n(C)c2=O)c(Cl)c1N=S1(=O)CCCCC1 [Example 153] | 0 | 7 | 8
COc1c(N=S2(=O)CCCCC2)cccc1C(=O)c1cnn(C)c1OCc1ccc2ccccc2c1 [Example 132] | 0 | 6 | 8
COc1ccc(C(=O)c2cnn(C)c2OCc2ccc3ccccc3c2)c(OC)c1N=S1(=O)CCOCC1 [Example 134] | 0 | 5 | 8
COC(=O)c1ccc(C(=O)c2c(C3CC3)nn(C)c2O)cc1N=S1(=O)CCCCC1 [Example 102] | 0 | 6 | 6
COc1ccc(C(=O)c2cnn(C)c2OCc2ccccc2)c(Cl)c1N=S1(=O)CCCCC1 [Example 107] | 0 | 7 | 7
COc1ccc(C(=O)c2cnn(C)c2OCC(=O)c2ccc([N+](=O)[O-])cc2)c(Cl)c1N=S1(=O)CCCCC1 [Example 114] | 0 | 10 | 8
COc1c(C(=O)c2cnn(C)c2OCc2ccc3ccccc3c2)ccc(C)c1N=S1(=O)CCCCC1 [Example 136] | 0 | 7 | 8
COc1ccc(C(=O)c2cnn(C)c2O)c(Cl)c1N=S(C)(=O)Cc1ccccc1 (stereo not drawn) [Example 119] | 0 | 10 | 8
Cn1ncc(C(=O)c2ccc(OC(F)F)c(N=S3(=O)CCCCC3)c2Cl)c1OCc1ccc2ccccc2c1 [Example 182] | 0 | 10 | 7
CCCS(=O)(CCC)=Nc1c(OC)ccc(C(=O)c2cnn(C)c2OCc2ccc3ccccc3c2)c1Cl [Example 146] | 0 | 5 | 6
COc1ccc(C(=O)c2cnn(C)c2O)c(Cl)c1N=S(C)(=O)c1ccccc1 (stereo not drawn) [Example 118] | 0 | 7 | 8

Now from value to compound, other results behind:

Rice (harmful effects on the rice plants, index) [1] | SMILES | Echinochloa crus-galli (herbicidal index) [2] | Scripus juncoides (herbicidal index) [3]
0 | COc1ccc(C(=O)c2c(C)nn(C)c2OCc2ccc3ccccc3c2)c(Cl)c1N=S1(=O)CCCCC1 [Example 253] | 6 | 8
1 | CCc1ccc(C(=O)c2cnn(C)c2O)c(Cl)c1N=S1(=O)CCCCC1 [Example 188] | 10 | 7
0 | CSC(=O)Oc1c(C(=O)c2ccc(OC(F)F)c(N=S3(=O)CCCCC3)c2Cl)cnn1C [Example 185] | 10 | 7
0 | COc1ccc(C(=O)c2cnn(C)c2OC(=O)SC)c(Cl)c1N=S(C)(=O)C(C)C (stereo not drawn) [Example 211] | 6 | 8
0 | CC(C)c1ccc(C(=O)C2=C(O)CCCC2=O)c(Cl)c1N=S1(=O)CCCCC1 [Example 209] | 7 | 6
0 | COC(=O)c1ccc(C(=O)c2cnn(C)c2OC(=O)SC(C)(C)C)c(Cl)c1N=S1(=O)CCCCC1 [Example 203] | 10 | 7
